Measurements: article PMC12067093, “Discovery and optimisation of a covalent ligand for TRIM25 and its application to targeted protein ubiquitination” (Chemical Science, 2025)

Columns and labels:
[1] = target: T1, TRIM25 (full-length, His10-TRIM25) (Homo sapiens, UniProt Q14258); experiment: In vitro TRIM25 auto-ubiquitination time course assay; format: biochemical; conditions: TRIM25 4 μM pre-treated with compound 50 μM for 16 h at 4 °C, versus DMSO; assay 60 min at 30 °C
T1 construct: Full-length recombinant TRIM25 was pre-treated with either DMSO, 10 or 11; made in house; host or cells: Sf9 insect cells
Experimental: 1 Glutathione reactivity assay
2 Glutathione consumption assay was outsourced to Cyprotex, where the experimental
3 procedure was optimised and performed. 10 mM DMSO stocks of fragments 1 and 2,
5 diluted with 5 mM glutathione in PBS. The reaction was shaken before incubation at
6 40 °C. The reaction mixture was analysed via UPLC-UV-MS up to eight times across
7 24 hours, compared to known reference compounds and samples of each compound
8 in distilled water. UPLC conditions: flow rate 800 µL/min on an Acquity UPLC BEH
9 C18 1.7 µm 2.1 x 50 mm column, with column temperature 37°C, monitored at 210 to
10 350 nm. Samples were run using a 2 min gradient elution from 97% mobile phase A
11 to 0% mobile phase A, where mobile phase A was 0.1% formic acid in H2O, and mobile
12 phase B was 0.1% formic acid in 100% MeCN. MS conditions: single quad, ESI+, with
13 scan range of 50 – 1000 Da. […]
15 (k) for each compound was determined from the slope of a linear regression fit for a […]
17 differential for the eight time points. t1/2 values were calculated as follows: t1/2 = 0.693/k. […]
2 indicates the sample taken prior to the addition of ATP. Samples were analysed by […]
16 added directly to the ubiquitination assay reaction mixture. Samples were analysed as […]
18 which was detected by anti-rabbit-HRP secondary antibody (Dako, P0399, 1:2000). […]
21 analysed in ImageLab (Bio-Rad). […]

[2] = test system: live THP-1 cells; experiment: IA-DTB competitive chemoproteomics in live THP-1 cells, proteome-wide off-targets; format: cell-based, 9606; conditions: compound 50 μM, 4 h at 37 °C

T1 sequence (Q14258 whole entry): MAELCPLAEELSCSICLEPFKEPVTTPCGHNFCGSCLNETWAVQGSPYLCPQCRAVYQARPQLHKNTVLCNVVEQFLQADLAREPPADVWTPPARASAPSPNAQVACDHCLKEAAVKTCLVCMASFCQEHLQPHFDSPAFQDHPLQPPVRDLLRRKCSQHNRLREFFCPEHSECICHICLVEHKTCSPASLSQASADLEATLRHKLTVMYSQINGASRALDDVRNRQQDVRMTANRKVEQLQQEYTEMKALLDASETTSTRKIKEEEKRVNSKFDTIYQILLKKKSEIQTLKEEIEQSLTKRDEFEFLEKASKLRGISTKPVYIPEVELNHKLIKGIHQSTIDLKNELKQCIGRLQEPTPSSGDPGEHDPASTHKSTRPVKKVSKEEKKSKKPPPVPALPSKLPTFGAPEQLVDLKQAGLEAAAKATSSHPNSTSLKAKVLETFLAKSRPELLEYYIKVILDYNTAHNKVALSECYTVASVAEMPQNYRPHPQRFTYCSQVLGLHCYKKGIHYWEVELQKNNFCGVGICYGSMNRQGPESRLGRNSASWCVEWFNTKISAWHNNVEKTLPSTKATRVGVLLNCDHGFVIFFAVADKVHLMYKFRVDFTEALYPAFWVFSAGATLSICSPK

Row | rate of TRIM25 auto-ubiquitination [1] | Structure (SMILES) | number of other protein targets competed [2]
1 | significantly increased | CC1Cc2ccccc2N1C(=O)C1CCCN(C(=O)CCl)C1 (stereo not drawn) [Compound 11] | 
2 | significantly increased | Cc1cc(C(=O)N2CCCN(C(=O)CCl)CC2)ccc1-c1ccccc1 [Compound 10] | 50
